Test results from patent publication US20230035127A1, “CULTURE AND DIFFERENTIATION OF PLURIPOTENT STEM CELLS” (University of Maryland, College Park, priority 2021, published 2023).
“Also recorded” adds a separate entry of the source.

What was measured:
[1] = tested on: human eiPSCs (DF19-9-11T.H); assay: 3D suspension culture of eiPSC spheroids with Rock inhibitor (morphology, size, cells per spheroid); type: cell-based; conditions: day −3
Method: The timeline for the 4-day (from day −4 to 0) 3D culture and the subsequent 3D cardiac differentiation of iPSCs is illustrated in FIG. 1B. First, 3D eiPSC spheroids were obtained for 3D cardiac differentiation, for which the eiPSC colonies from 2D culture were detached and mechanically cut with a cell strainer (100 μm mesh size) into small iPSC clumps for suspension culture in the mTeSR medium for 4 days. Methylcellulose was added into the medium to enhance the medium viscosity and reduce fusion of the eiPSC clumps/spheroids during the suspension culture. During the first two days of 3D culture, the medium was supplemented with 1 μM RI (low RI) or 10 μM RI (high RI that has been commonly used for improving the survival/yield of human PSCs including iPSCs during culture), and no RI was used during the last two days of culture. […]
To obtain 3D iPSC spheroids, the iPSC colonies under 2D culture at ˜80% confluence were treated with Versene for 2 min, rinsed with PBS, and further detached from the substrate by gentle pipetting. […] The dissociated cells were then resuspended in 1.4 ml of the aforementioned iPSC maintenance medium and the cell number was counted using a hemocytometer. […]

IMR90-1 human iPSCs = assay: 3D cardiac differentiation of IMR90-1 iPSCs: beating cardiac spheroids; type: cell-based; conditions: for percentage of beating IMR90-1 cardiac spheroids: 10 μM RI
Method: Another commonly utilized iPSC line (IMR90-1) was tested to confirm that the improved cardiac differentiation of iPSCs with low RI for 3D culture before differentiation is not because of the eiPSCs used. The beating of the resultant IMR90-1 cardiac spheroids peaked at ˜98% on day 7.5 with the OBT being synchronized within ˜1 day for the 1 μM RI group (FIG. 19A). […] This was consistent with the flow cytometry data of the cells in the cardiac spheroids collected on day 12.5, showing that 91% and 32% of the cells were positive for the cardiac-specific protein cTnT (that are crucial for beating) in the 1 and 10 μM RI groups, respectively (FIG. 19B-C). Furthermore, cells in the cardiac spheroids that were positive for neural-specific maker MUSASHI were negligible in the 1 μM RI group, while ˜20% cells in the cardiac spheroids from the 10 μM RI group were MUSASHI positive (FIG. 19B-C).
(§1) To obtain 3D iPSC spheroids, the iPSC colonies under 2D culture at ˜80% confluence were treated with Versene for 2 min, rinsed with PBS, and further detached from the substrate by gentle pipetting. The detached iPSCs were re-suspended in mTeSR1 with Rock inhibitor (Y27632) at 0, 1, 5, or 10 μM. Afterward, the medium was supplemented with 0.35% (v/v) methylcellulose. The cell suspension (12 ml) containing ˜4×10^6 cells was pushed through a cell strainer with 100 μm mesh size. Later, the suspension of iPSC clumps was transferred into a petri dish (diameter: 10 cm) for culture in a humidified incubator at 37° C. and 5% CO2 for 2 days, during which the 2D iPSC clumps grew into 3D iPSC spheroids. Then, the medium was changed to mTeSR1 (supplemented with 0.35% methylcellulose) with no rock inhibitor, to further culture for 2 days before cardiac differentiation. To determine the number of cells per eiPSC spheroid, roughly equal numbers of the spheroids from either the 1 or 10 μM RI group were pooled together and trypsinized to dissociate the cells. The dissociated cells were then resuspended in 1.4 ml of the aforementioned iPSC maintenance medium and the cell number was counted using a hemocytometer. Three independent runs with 282, 260, and 256 spheroids for the 1 μM RI group and 273, 298, and 286 spheroids for the 10 μM RI group were conducted.
The eiPSC spheroids obtained after 4 days of culture on day 0 were induced into mesoderm by up-regulation of the Wnt signaling pathway using 8 μM CHIR99021 and 2 μM GSK inhibitor 6-bromoindirubin-3′-oxime (BIO) in the mesoderm induction medium for 1 day. The mesoderm induction medium was a mixture of DMEM/F12 and α-MEM (v/v, 1:1), containing 2% Knockout Serum Replacement (KOSR), 1 mM L-glutamine, 1% MEM non-essential amino acids (NEAA), and 0.1 mM β-mercaptoethanol. […]

eiPSCs = assay: Survival/yield of PSCs in 3D suspension culture; type: cell-based, human; conditions: for improvement of cell yield (number of viable cells): 3D culture
Method: as §1

C[C@@H](N)[C@H]1CC[C@H](C(=O)Nc2ccncc2)CC1.Cl.Cl (relative stereo) [RI, (+)-(R)-trans-4-(1-aminoethyl)-N-(4-pyridyl) cyclo-hexanecarboxamide dihydrochloride]
morphology of eiPSC spheroids ([1]; 1 μM RI): remain solid-like | morphology of eiPSC spheroids ([1]; 10 μM RI): evident core-shell morphology with a cavity-like core | outset beating time (OBT) synchronized within (IMR90-1 human iPSCs; 1 μM RI): ≤ 1 days | time within which cardiac spheroids start to beat (IMR90-1 human iPSCs; 1 μM RI): ≤ 24 h | percentage of beating IMR90-1 cardiac spheroids (IMR90-1 human iPSCs; day 7.5): 11.5% | percentage of beating IMR90-1 cardiac spheroids (IMR90-1 human iPSCs; in a week, day 13.5): 34.1% | cell survival and yield (eiPSCs; 1 μM RI compared to 0 μM RI control, day 0, dihydrochloride): significantly more; also recorded: significantly increases | improvement of cell yield (number of viable cells) (eiPSCs; 10 μM RI compared to 0 μM RI): about 3 times | improvement of cell yield (number of viable cells) (eiPSCs; 10 μM RI compared to 1 μM RI): ~2 times
